Results: patent US7169414B2, “Antimicrobial agents isolated from aloe vera” (priority 1998, dated 2007)

Test system: bacterial growth
Test: culture killing assays of known Aloe components
Assay type: cell-based
Settings: purified extracts of known Aloe components
Description: Previously isolated and identified individual aloe products as antimicrobial products were studied to confirm that these compounds were not responsible for the anti-bacterial activity identified herein. Purified extracts of several known Aloe components were provided by Dr. I. Danhoff, including: Albarin, Awbarin, Anthraquinone, Aloin A, Aloin A & B, Aloe emodin, and Yellow sap components were tested in like assays.

Compound	inhibition of bacterial growth
O=C1c2c(O)cccc2C([C@@H]2O[C@H](CO)[C@@H](O)[C@H](O)[C@H]2O)c2cc(CO)cc(O)c21 (some centres unmarked) [Aloin A]	showed any inhibition of bacterial growth
O=C1c2ccccc2C(=O)c2ccccc21 [Anthraquinone]	only Aloin A and Aloe emodin showed any inhibition of bacterial growth
